Reference: patent US11248234B2, “Herbicide-resistant hydroxyphenylpyruvate dioxygenases” (BASF SE, priority 2015, dated 2022)
Entries after “also recorded” stand apart in the source; their conditions may differ.

Key:
[1] = molecular target: Scenedesmus HPPD (Seq ID: 2) (Tetradesmus obliquus, UniProt A0A383WMN4, N195D); assay: In vitro HPPD activity assay; format: biochemical; conditions: for TI (normalized tolerance index): normalized on Arabidopsis wild-type HPPD (SEQ ID NO:42)
Protocol: (§1) HPPD produces homogentisic acid and CO2 from 4-hydroxyphenylpyruvate (4-HPP) and O2. The activity assay for HPPD is based on the analysis of homogentisic acid by reversed phase HPLC.
(§2) The assay mixture can contain 150 mM potassium phosphate buffer pH 7.0, 50 mM L-ascorbic acid, 100 μM Catalase (Sigma-Aldrich), 1 μM FeSO4 and 0.2 units of purified mutated HPPD enzyme in a total volume of 505 μl. 1 unit is defined as the amount of enzyme that is required to produce 1 nmol of HGA per minute at 20° C.
(§3) After a preincubation of 30 min the reaction is started by adding 4-HPP to a final concentration of 0.05 mM. The reaction is allowed to proceed for 45 min at room temperature. The reaction is stopped by the addition of 50 μl of 4.5 M phosphoric acid. The sample is filtered using a […] pore size PVDF filtration device.
(§4) 5 μl of the cleared sample is analyzed on an UPLC HSS T3 column (particle size 1.8 μm, dimensions 2.1×50 mm; Waters) by isocratic elution using 90% 20 mM NaH2PO4 pH 2.2, 10% methanol (v/v).
(§5) HGA is detected electrochemically at 750 mV (mode: DC; polarity: positive) and quantified by integrating peak areas (Empower software; Waters).
(§6) Inhibitors are dissolved in DMSO (dimethylsulfoxide) to a concentration of 0.5 mM. From this stock solution serial five-fold dilutions are prepared in DMSO, which are used in the assay. The respective inhibitor solution accounts for 1% of the assay volume. Thus, final inhibitor concentrations range from 5 μM to 320 pM, respectively. Activities are normalized by setting the uninhibited enzyme activity to 100%. IC50 values are calculated using non-linear regression.
(§7) Using methods which are described in the above examples or well known in the art, purified, recombinant mutated HPPD enzymes are characterized with respect to their kinetic properties and sensitivity towards HPPD inhibiting herbicides. Apparent michaelis constants (Km) and maximal reaction velocities (Vmax) are calculated by non-linear regression with the software GraphPad Prism 5 (GraphPad Software, La Jolla, USA) using a substrate inhibition model. Apparent kcat values are calculated from Vmax assuming 100% purity of the enzyme preparation. Weighted means (by standard error) of Km and IC50 values are calculated from at least three independent experiments. The Cheng-Prusoff equation for competitive inhibition (Cheng, Y. C.; Prusoff, W. H. Biochem Pharmacol 1973, 22, 3099-3108) is used to calculate dissociation constants (Ki).
(§8) Field performance of the HPPD enzyme, which is used as a herbicide tolerance trait may depend not only on its lack of sensitivity towards HPPD inhibiting herbicides but also on its activity. To assess the potential performance of a herbicide tolerance trait a tolerance index (TI) is calculated using the following formula: […]
(§9) Easy comparison and ranking of each trait is enabled by normalizing tolerance indexes on Arabidopsis wild-type HPPD.

[2] = molecular target: Scenedesmus Short HPPD (Seq ID: 4) (Tetradesmus obliquus, UniProt A0A383WMN4, DEL398-433/N195D); assay: In vitro HPPD activity assay; format: biochemical; conditions: for TI (normalized tolerance index): normalized on Arabidopsis wild-type HPPD (SEQ ID NO:42)
Sequence of Scenedesmus Short HPPD (Seq ID: 4) (A0A383WMN4 entry or part of it N195D/DEL398-433): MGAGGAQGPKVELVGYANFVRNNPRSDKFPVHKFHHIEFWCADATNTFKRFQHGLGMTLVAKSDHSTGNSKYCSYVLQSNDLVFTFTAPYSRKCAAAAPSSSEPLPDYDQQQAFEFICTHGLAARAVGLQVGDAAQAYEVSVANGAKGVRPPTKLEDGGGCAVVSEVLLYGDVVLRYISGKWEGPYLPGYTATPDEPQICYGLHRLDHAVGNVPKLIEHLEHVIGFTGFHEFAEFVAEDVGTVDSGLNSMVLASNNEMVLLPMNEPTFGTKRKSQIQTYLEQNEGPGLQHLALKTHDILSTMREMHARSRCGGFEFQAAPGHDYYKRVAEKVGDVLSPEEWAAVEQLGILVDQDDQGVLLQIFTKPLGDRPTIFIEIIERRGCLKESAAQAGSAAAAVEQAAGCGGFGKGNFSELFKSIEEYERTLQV
Protocol: as §1, §2, §3, §4, §5, §6, §7, §8, §9

SoHPPD H306K (short) = assay: In vitro HPPD activity assay; format: biochemical, Scenedesmus obliquus; conditions: normalized on Arabidopsis wild-type HPPD (SEQ ID NO:42)
Protocol: as §1, §2, §3, §4, §5, §6, §7, §8, §9

SoHPPD E379Q (short) = assay: In vitro HPPD activity assay; format: biochemical, Scenedesmus obliquus; conditions: normalized on Arabidopsis wild-type HPPD (SEQ ID NO:42)
Protocol: as §1, §2, §3, §4, §5, §6, §7, §8, §9

[3] = test system: SoHPPD R327G, E421D (short); assay: In vitro HPPD activity assay; format: biochemical, Scenedesmus obliquus; conditions: normalized on Arabidopsis wild-type HPPD (SEQ ID NO:42)
Protocol: as §1, §2, §3, §4, §5, §6, §7, §8, §9

[4] = test system: SoHPPD K326E, E345Q (short); assay: In vitro HPPD activity assay; format: biochemical, Scenedesmus obliquus; conditions: normalized on Arabidopsis wild-type HPPD (SEQ ID NO:42)
Protocol: as §1, §2, §3, §4, §5, §6, §7, §8, §9

SoHPPD Q317H = assay: In vitro HPPD activity assay; format: biochemical, Scenedesmus obliquus; conditions: normalized on Arabidopsis wild-type HPPD (SEQ ID NO:42)
Protocol: as §1, §2, §3, §4, §5, §6, §7, §8, §9

[5] = test system: SoHPPD A318P, A319P (short); assay: In vitro HPPD activity assay; format: biochemical, Scenedesmus obliquus; conditions: normalized on Arabidopsis wild-type HPPD (SEQ ID NO:42)
Protocol: as §1, §2, §3, §4, §5, §6, §7, §8, §9

[6] = test system: SoHPPD Q317H, A318G, E345Q (short); assay: In vitro HPPD activity assay; format: biochemical, Scenedesmus obliquus; conditions: normalized on Arabidopsis wild-type HPPD (SEQ ID NO:42)
Protocol: as §1, §2, §3, §4, §5, §6, §7, §8, §9

SoHPPD F363I = assay: In vitro HPPD activity assay; format: biochemical, Scenedesmus obliquus; conditions: normalized on Arabidopsis wild-type HPPD (SEQ ID NO:42)
Protocol: as §1, §2, §3, §4, §5, §6, §7, §8, §9

[7] = test system: SoHPPD A318R, L350M (short); assay: In vitro HPPD activity assay; format: biochemical, Scenedesmus obliquus; conditions: normalized on Arabidopsis wild-type HPPD (SEQ ID NO:42)
Protocol: as §1, §2, §3, §4, §5, §6, §7, §8, §9

SoHPPD A318R, L350M = assay: In vitro HPPD activity assay; format: biochemical, Scenedesmus obliquus; conditions: normalized on Arabidopsis wild-type HPPD (SEQ ID NO:42)
Protocol: as §1, §2, §3, §4, §5, §6, §7, §8, §9

SoHPPD L367V, I375L = assay: In vitro HPPD activity assay; format: biochemical, Scenedesmus obliquus; conditions: normalized on Arabidopsis wild-type HPPD (SEQ ID NO:42)
Protocol: as §1, §2, §3, §4, §5, §6, §7, §8, §9

[8] = molecular target: T1, Arabidopsis HPPD (Seq ID: 42) (Arabidopsis thaliana, UniProt P93836); assay: In vitro HPPD activity assay (homogentisic acid by HPLC); format: biochemical; conditions: benchmark enzyme; normalized on Arabidopsis wild-type HPPD
T1 construct: His6; made in house; host or cells: E. coli BL21 (DE3)
T1 sequence (P93836 1-445): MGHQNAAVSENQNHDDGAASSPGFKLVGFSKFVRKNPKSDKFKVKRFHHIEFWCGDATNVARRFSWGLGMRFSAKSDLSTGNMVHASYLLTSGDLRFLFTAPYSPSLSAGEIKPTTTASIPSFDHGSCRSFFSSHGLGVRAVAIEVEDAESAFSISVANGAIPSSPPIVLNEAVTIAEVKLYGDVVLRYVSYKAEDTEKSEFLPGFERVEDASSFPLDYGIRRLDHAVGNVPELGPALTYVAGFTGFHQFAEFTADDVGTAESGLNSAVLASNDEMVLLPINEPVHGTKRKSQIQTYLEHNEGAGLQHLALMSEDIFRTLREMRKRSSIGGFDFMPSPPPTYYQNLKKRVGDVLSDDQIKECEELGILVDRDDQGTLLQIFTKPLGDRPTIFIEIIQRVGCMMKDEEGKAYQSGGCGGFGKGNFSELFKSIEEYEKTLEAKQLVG
Protocol: as §1, §2, §3, §4, §5
Inhibitors are dissolved in DMSO (dimethylsulfoxide) to a concentration of 0.5 mM. From this stock solution serial five-fold dilutions are prepared in DMSO, which are used in the assay. The respective inhibitor solution accounts for 1% of the assay volume. […] Activities are normalized by setting the uninhibited enzyme activity to 100%. IC50 values are calculated using non-linear regression.
Using methods which are described in the above examples or well known in the art, purified, recombinant mutated HPPD enzymes are characterized with respect to their kinetic properties and sensitivity towards HPPD inhibiting herbicides. Apparent michaelis constants (Km) and maximal reaction velocities (Vmax) are calculated by non-linear regression with the software GraphPad Prism 5 (GraphPad Software, La Jolla, USA) using a substrate inhibition model. […] Weighted means (by standard error) of Km and IC50 values are calculated from at least three independent experiments.
as §8, §9

Sequence of Scenedesmus HPPD (Seq ID: 2) (A0A383WMN4 entry or part of it N195D): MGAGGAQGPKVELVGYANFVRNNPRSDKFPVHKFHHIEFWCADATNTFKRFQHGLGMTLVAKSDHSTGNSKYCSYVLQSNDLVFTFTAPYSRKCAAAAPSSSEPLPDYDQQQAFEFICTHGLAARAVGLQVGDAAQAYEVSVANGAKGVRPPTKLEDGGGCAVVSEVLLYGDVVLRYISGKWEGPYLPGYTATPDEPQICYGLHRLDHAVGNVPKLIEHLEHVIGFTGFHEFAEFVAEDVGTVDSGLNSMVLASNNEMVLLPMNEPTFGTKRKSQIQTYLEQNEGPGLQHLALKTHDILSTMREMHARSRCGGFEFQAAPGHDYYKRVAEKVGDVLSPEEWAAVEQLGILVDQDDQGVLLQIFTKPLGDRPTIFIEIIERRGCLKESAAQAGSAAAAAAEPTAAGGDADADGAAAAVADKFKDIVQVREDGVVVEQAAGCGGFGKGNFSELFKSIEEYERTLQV

SMILES	Ki [1]	Ki [2]	TI (normalized tolerance index) (SoHPPD H306K (short))	TI (normalized tolerance index) (SoHPPD E379Q (short))	TI (normalized tolerance index) [3]	TI (normalized tolerance index) [4]	TI (normalized tolerance index) (SoHPPD Q317H)	TI (normalized tolerance index) [5]	TI (normalized tolerance index) [6]	TI (normalized tolerance index) (SoHPPD F363I)	TI (normalized tolerance index) [7]	TI (normalized tolerance index) (SoHPPD A318R, L350M)	TI (normalized tolerance index) (SoHPPD L367V, I375L)	TI (normalized tolerance index) [1]	TI (normalized tolerance index) [2]	TI (normalized tolerance index) [8]
Cc1c(C(=O)c2cnn(C)c2O)ccc(S(C)(=O)=O)c1C1=NOCC1 [Inhibitor 1, [3-(4,5-dihydroisoxazol-3-yl)-2-methyl-4-methylsulfonyl-phenyl]-(5-hydroxy-1-methyl-pyrazol-4-yl)methanone]	11 nM	46 nM														
CCSc1ccc(Cl)c(C(=O)Nc2nnnn2C)c1Cl [Inhibitor 8, 2,6-dichloro-3-ethylsulfanyl-N-(1-methyltetrazol-5-yl)benzamide]			0.3	0.4	0.5	0.1	0.1	0.8	1.0	no inhibition; also recorded: no inhi-	1.2	0.2	0.0	0.1	0.9	1.0
CS(=O)(=O)c1ccc(C(=O)C2C(=O)CCCC2=O)c([N+](=O)[O-])c1 [Inhibitor 2, 2-(4-methylsulfonyl-2-nitro-benzoyl)cyclohexane-1,3-dione]			0.1	0.0	0.2	0.0	0.1	0.2	0.4	0.1	0.8	0.1	0.0	0.5	0.0	1.0
CC(=O)N(C)c1c(Cl)ccc(C2=C(O)c3ncccc3C(C)(C)S2(=O)=O)c1Cl [Inhibitor 5, N-[2,6-dichloro-3-(8-hydroxy-5,5-dimethyl-6,6-dioxo-thiopyrano[4,3-b]pyridin-7-yl)phenyl]-N-methyl-acetamide]			0.2	0.0	0.3	0.0	0.2	0.5	0.9	0.4	0.7	0.2	0.1	0.0	1.3	1.0
CCS(=O)(=O)c1cc(C(F)(F)F)ccc1C1=C(O)c2ncccc2C(C)(C)S1(=O)=O [Inhibitor 4, 7-[2-ethylsulfonyl-4-(trifluoromethyl)phenyl]-5,5-dimethyl-6,6-dioxo-thiopyrano[4,3-b]pyridin-8-ol]			0.3	0.1	0.0	0.0	0.3	0.6	1.4	0.1	1.0	0.3	0.2	0.1	1.4	1.0
